According to patent US6455506B1, “Lyxofuranosyl benzimidazoles as antiviral agents” (SmithKline Beecham Corporation, priority 1997, dated 2002):
Read-outs that look alike come from different tables or passages of the source.

Key:
HCMV [1] = settings: background, literature report; cited from earlier work
HCMV [2] = test: HCMV yield reduction assay (Towne strain) in HFF cells; assay type: cell-based, Human cytomegalovirus
Protocol: (§1) Stock HCMV was prepared by infecting HFF cells at a multiplicity of infection (m.o.i.) of <0.01 plaque-forming units (p.f.u.) per cell as detailed previously (see Turk, S. R.; Shipman, C., Jr.; Nassiri, M. R.; Genzingler, G.; Krawczyk, S. H.; Townsend, L. B.; Drach, J. C. Pyrrolo[2,3-d]pyrimidine Nucleosides as Inhibitors of Human Cytomegalovirus, Antimicrob. Agents Chemother. 1987, 31, 544-550). High titer HSV-1 stocks were prepared by infecting KB cells (ATCC) at an m.o.i. of <0.1 also as detailed previously (see Turk, S. R.; Shipman, C., Jr.; Nassiri, M. R.; Genzingler, G.; Krawczyk, S. H.; Townsend, L. B.; Drach, J. C. Pyrrolo[2,3-d]pyrimidine Nucleosides as Inhibitors of Human Cytomegalovirus, Antimicrob. Agents Chemother. 1987, 31, 544-550). Virus titers were determined using monolayer cultures of HFF cells for HCMV and monolayer cultures of BSC-1 cells for HSV-1 as described earlier (see Prichard, M. N.; Turk, S. R.; Coleman, L. A.; Engelhardt, S. L.; Shipman, C., Jr.; Drach, J. C. A Microtiter Virus Yield Reduction Assay for the Evaluation of Antiviral Compounds Against Human Cytomegalovirus and Herpes Simplex Virus. J. Virol. Methods 1990, 28, 101-106). Briefly, HFF or BSC-1 cells were planted as described above in 96-well cluster dishes and incubated overnight at 37° C. The next day cultures were inoculated with HCMV or HSV-1 and serially diluted 1:3 across the remaining eleven columns of the 96-well plate. After virus adsorption the inoculum was replaced with fresh medium and cultures were incubated for seven days for HCMV, two or three days for HSV-1. Plaques were enumerated under 20-fold magnification in wells having the dilution which gave 5 to 20 plaques per well. Virus titers were calculated according to the following formula: Titer (p.f.u./mL)=number of plaques×5×3^n; where n represents the nth dilution of the virus used to infect the well in which plaques were enumerated.
HFF cells were planted as described above in 96-well cluster dishes, incubated overnight, medium removed and the cultures were inoculated with HCMV at a m.o.i. of 0.5 to 1 p.f.u. per cell as reported elsewhere (see Prichard, M. N.; Turk, S. R.; Coleman, L. A.; Engelhardt, S. L.; Shipman, C., Jr.; Drach, J. C. A Microtiter Virus Yield Reduction Assay for the Evaluation of Antiviral Compounds Against Human Cytomegalovirus and Herpes Simplex Virus. J. Virol. Methods 1990, 28, 101-106). After virus adsorption, inoculum was replaced with 0.2 mL of fresh medium containing test compounds. The first row of 12 wells was left undisturbed and served as virus controls. Each well in the second row received an additional 0.1 mL of medium with test compound at three times the desired final concentration. The contents of the 12 wells were mixed by repeated pipetting and then serially diluted 1:3 along the remaining wells. In this manner, six compounds could be tested in duplicate on a single plate with concentrations from […]. Plates were incubated at 37° C. for seven days, subjected to one cycle of freezing and thawing; aliquots from each of the eight wells of a given column were transferred to the first column of a fresh 96-well monolayer culture of HFF cells. Contents were mixed and serially diluted 1:3 across the remaining eleven columns of the secondary plate. Each column of the original primary plate was diluted across a separate plate in this manner. Cultures were incubated, plaques were enumerated, and titers calculated as described above.
(§2) Dose-response relationships were constructed by linearly regressing the percent inhibition of parameters derived in the preceding sections against log drug concentrations. Fifty-percent inhibitory concentrations (IC50's) or IC90's were calculated from the regression lines. Samples containing positive controls (acyclovir for HSV-1, ganciclovir for HCMV, and 2-acetylpyridine thiosemicarbazone for cytotoxicity) were used in all assays.

HSV-1 [3] = test: HSV-1 ELISA in BSC-1 cells; assay type: cell-based, herpes simplex virus 1; settings: Human alphaherpesvirus 1, quadruplicate wells, read-out: HSV-1 ELISA 50% Inhibitory Concentration (IC50)
Protocol: An ELISA was employed (see Prichard, M. N.; Shipman, C., Jr. A Three Dimensional Model to Analyze Drug-Drug Interactions. Antiviral Res. 1990, 14, 181-206) to detect HSV-1. Ninety-six-well cluster dishes were planted with 10,000 BSC-1 cells per well in 200 μL per well of MEM(E) plus 10% calf serum. After overnight incubation at 37° C., selected drug concentrations in quadruplicate and HSV-1 at a concentration of 100 p.f.u./well were added. Following a 3-day incubation at 37° C., medium was removed, plates were blocked, rinsed, and horse radish peroxidase conjugated rabbit anti-HSV-1 antibody was added. Following removal of the antibody containing solution, plates were rinsed, and then developed by adding 150 μL per well of a solution of tetramethylbenzidine as substrate. The reaction was stopped with H2SO4 and absorbance was read at 450 and 570 nm. Drug effects were calculated as a percentage of the reduction in absorbance in the presence of each drug concentration compared to absorbance obtained with virus in the absence of drug.
as §2

[4] = Visual cytotoxicity in stationary HFF cells; assay type: cell-based; settings: human; HFF cells, scored at time of HCMV plaque enumeration; read-out: Cytotoxicity visual (IC50)
Protocol: (§3) Two different assays were used for routine cytotoxicity testing. (i) Cytotoxicity produced in stationary HFF cells was determined by microscopic inspection of cells not affected by the virus used in plaque assays (see Turk, S. R.; Shipman, C., Jr.; Nassiri, M. R.; Genzingler, G.; Krawczyk, S. H.; Townsend, L. B.; Drach, J. C. Pyrrolo[2,3-]pyrimidine Nucleosides as Inhibitors of Human Cytomegalovirus, Antimicrob. Agents Chemother. 1987, 31, 544-550). (ii) The effect of compounds during two population doublings of KB cells was determined by crystal violet staining and spectrophotometric quantitation of dye eluted from stained cells as described earlier (see Prichard, M. N.; Prichard, L. E., Baguley, W. A.; Nassiri, M. R.; Shipman, C., Jr. Three-Dimensional Analysis of the Synergistic Cytotoxicity of Ganciclovir and Zidovudine. Antiviral Res. 1991, 35, 1060-1065). Briefly, 96-well cluster dishes were planted with KB cells at 3000-5000 cells per well. After overnight incubation at 37° C., test compound was added in quadruplicate at six to eight concentrations. Plates were incubated at 37° C. for 48 hours in a CO2 incubator, rinsed, fixed with 95% ethanol, and stained with 0.1% crystal violet. Acidified ethanol was added and plates read at 570 nm in a spectrophotometer designed to read 96-well ELISA assay plates.
as §2

[5] = Inhibition of KB cell growth (crystal violet); assay type: cell-based; settings: human, KB cells; KB cell growth, 48 hours, quadruplicate; read-out: Cytotoxicity growth (IC50)
Protocol: as §3, §2

HCMV [6] = test: HCMV plaque reduction assay (Towne strain) in HFF cells; assay type: cell-based, Human cytomegalovirus
Protocol: as §1
(§4) HFF cells in 24-well cluster dishes were infected with approximately 100 p.f.u. of HCMV per cm^2 cell sheet using the procedures detailed above. Following virus adsorption, compounds dissolved in growth medium were added to duplicate wells in four to eight selected concentrations. After incubation at 37° C. for 7 to 10 days, cell sheets were fixed, stained with crystal violet and microscopic plaques enumerated as described above.
as §2

Hepatitis B Virus (HBV) = test: Activity against Hepatitis B Virus (Jansen et al.); assay type: cell-based; settings: two separate tests
Protocol: The activity of compounds against Hepatitis B Virus (HBV) was assessed as described in Jansen, R., et al., Antimicrobial Agents and Chemotherapy, Vol. 37, No. 3, pp. 441-447, 1993.

HCMV Strain AD169 = test: HCMV plaque reduction assay, strain AD169; assay type: cell-based, Human cytomegalovirus; settings: Human betaherpesvirus 5, Table 3, read-out: HCMV Strain AD169 plaque 50% Inhibitory Concentration (IC50)
Protocol: as §4, §2

HSV-1 [7] = test: HSV-1 plaque assay (used for DHPG); assay type: cell-based, herpes simplex virus 1; settings: Human alphaherpesvirus 1; plaque assay used for DHPG instead of ELISA (footnote b); read-out: HSV-1 plaque assay 50% Inhibitory Concentration (IC50)
Protocol: as §1, with “Briefly, HFF or BSC-1 cells were planted as described above in 96-well cluster dishes and incubated overnight at 37° C. The next day cultures were inoculated with HCMV or HSV-1 and serially diluted 1:3 across the remaining eleven columns of the 96-well plate. After virus adsorption the inoculum was replaced with fresh medium and cultures were incubated for seven days for HCMV, two or three days for HSV-1. Plaques were enumerated under 20-fold magnification in wells having the dilution which gave 5 to 20 plaques per well.” left out

[8] = Human betaherpesvirus 5, HFF, Table 3, same data as Table 2, read-out: HCMV Strain Towne yield 90% Inhibitory Concentration (IC90)
[9] = Human betaherpesvirus 5, Table 2, HFF cells, duplicate, read-out: HCMV yield 90% Inhibitory Concentration (IC90)
[10] = Human betaherpesvirus 5, HFF, Table 3, same data as Table 2, read-out: HCMV Strain Towne plaque 50% Inhibitory Concentration (IC50)
[11] = Human betaherpesvirus 5, Table 2, HFF cells, duplicate, read-out: HCMV plaque 50% Inhibitory Concentration (IC50)

Row | Structure (SMILES) | inhibition of HCMV (HCMV [1]) | IC90 (HCMV [2]; [8]) [nM] | IC90 (HCMV [2]; [9]) [nM] | IC50 (HSV-1 [3]) [nM] | IC50 [4] [nM] | IC50 at 48 h [5] [nM] | IC50 (HCMV [6]; [10]) [nM] | IC50 (HCMV [6]; [11]) [nM] | IC50 (Hepatitis B Virus (HBV); Hepatitis B virus) [nM] | IC50 (Hepatitis B Virus (HBV)) [nM] | melting point [°C] | IC50 (HCMV Strain AD169) [nM] | IC50 (HSV-1 [7]) [nM]
1 | OC[C@H]1O[C@@H](n2c(Br)nc3cc(Cl)c(Cl)cc32)[C@H](O)[C@@H]1O [BDCRB, 2-bromo-5,6-dichloro-1-(β-D-ribofuranosyl)benzimidazole] | significant inhibitors of HCMV |  |  |  |  |  |  |  |  |  |  |  | 
2 | OC[C@@H]1O[C@@H](n2c(Br)nc3cc(Cl)c(Cl)cc32)[C@H](O)[C@@H]1O [Compound 5a, 2-Bromo-5,6dichloro-1-(α-L-lyxofuranosyl)benzimidazole] |  | 800 | 800 | > 100000 | > 100000 | > 100000 | 2800 | 2800 | 8800 | 16000 | 178 to 179 | 800 | 
3 | OC[C@H]1O[C@@H](n2c(Cl)nc3cc(Cl)c(Cl)cc32)[C@H](O)[C@@H]1O [TCRB, 2,5,6-trichloro-1-(β-D-ribofuranosyl)benzimidazole, reference compound] | significant inhibitors of HCMV | 1400 |  |  |  |  | 2900 |  |  |  |  | 1800 | 
4 | Nc1nc(O)c2ncn(COC(CO)CO)c2n1 [ganciclovir (DHPG), ganciclovir, reference compound] |  |  | 1600 ± 1200 |  | > 100000 | > 100000 |  | 7400 ± 6500 |  |  |  |  | 3500 ± 2100
